This passage reports Basal, Emin and Span results from PMC7695835, “Pharmacological characterisation of novel adenosine A3 receptor antagonists” (Scientific Reports, 2020).

In one experiment the target is T1, M177A A3R (Homo sapiens, UniProt P0DMS8, M177A).
T1 sequence (P0DMS8 1-318 M177A): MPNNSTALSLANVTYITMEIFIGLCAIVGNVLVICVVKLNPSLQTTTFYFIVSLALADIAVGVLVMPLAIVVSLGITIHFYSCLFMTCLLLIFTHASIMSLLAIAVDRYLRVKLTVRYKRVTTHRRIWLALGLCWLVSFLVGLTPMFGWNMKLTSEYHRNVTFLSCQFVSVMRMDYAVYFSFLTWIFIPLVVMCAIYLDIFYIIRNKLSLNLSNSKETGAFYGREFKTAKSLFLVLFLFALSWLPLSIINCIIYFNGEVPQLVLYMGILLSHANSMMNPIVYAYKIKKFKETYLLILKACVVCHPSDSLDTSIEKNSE
The settings on record: + DMSO.

In experiment [1] the target is T2, WT A3R (Homo sapiens, UniProt P0DMS8).
T2 sequence (P0DMS8 1-318): T1 sequence (P0DMS8 1-318 M177A) with A177M
Put plainly: IB-MECA stimulated cAMP inhibition at WT A3R Flp-In-CHO, with Schild analysis. The experiment is classed as cell-based. The settings on record: IB-MECA only; difference between Emin and basal.

The target of a further experiment is T3, L264A A3R (Homo sapiens, UniProt P0DMS8, L264A).
T3 sequence (P0DMS8 1-318 L264A): T1 sequence (P0DMS8 1-318 M177A) with A177M, L264A
The settings on record: + DMSO.

Another experiment deals with T4, I249A A3R (Homo sapiens, UniProt P0DMS8, I249A).
T4 sequence (P0DMS8 1-318 I249A): T1 sequence (P0DMS8 1-318 M177A) with A177M, I249A
The settings on record: + DMSO.

The target of another experiment is T5, V169A A3R (Homo sapiens, UniProt P0DMS8, V169A).
T5 sequence (P0DMS8 1-318 V169A): T1 sequence (P0DMS8 1-318 M177A) with V169A, A177M
The settings on record: + DMSO.

Experiment [2] concerns the target T2, WT A3R. The settings on record: + DMSO.
Another experiment addresses T6, L90A A3R (Homo sapiens, UniProt P0DMS8, L90A).
T6 sequence (P0DMS8 1-318 L90A): T1 sequence (P0DMS8 1-318 M177A) with L90A, A177M
The settings on record: + DMSO.

Numbering of substitutions follows the chain as printed. Read-outs that look alike come from different tables or passages of the source.

In the case of `CNC(=O)[C@H]1O[C@@H](n2cnc3c(NCc4cccc(I)c4)ncnc32)[C@H](O)[C@@H]1O` [IB-MECA, (2S,3S,4R,5R)-3,4-dihydroxy-5-[6-[(3-iodophenyl)methylamino]purin-9-yl]-N-methyloxolane-2-carboxamide], the Basal at M177A A3R was found to be 70.2 ± 2.0 %100 μM forskolin; at L264A A3R it was 72.0 ± 2.3 %100 μM forskolin; on I249A A3R, 62.6 ± 2.7 %100 μM forskolin; on V169A A3R, 55.3 ± 2.4 %100 μM forskolin; at WT A3R [2] it was 60.1 ± 0.9 %100 μM forskolin; at L90A A3R, 73.2 ± 2.7 %100 μM forskolin. Besides, the Emin is 38.6 ± 2.7 %100 μM forskolin on M177A A3R; 41.1 ± 2.2 %100 μM forskolin on L264A A3R; 34.9 ± 2.2 %100 μM forskolin on I249A A3R; 30.9 ± 1.7 %100 μM forskolin on V169A A3R; 35.0 ± 1.6 %100 μM forskolin on WT A3R [2]; 43.3 ± 3.2 %100 μM forskolin on L90A A3R. Besides, the Span turned out to be 31.6 ± 2.0 at M177A A3R; 116.1 ± 3.5 at WT A3R [1]; 30.9 ± 2.2 at L264A A3R; 27.7 ± 1.3 on I249A A3R; 25.1 ± 2.0 on WT A3R [2]; 29.9 ± 1.8 on L90A A3R.
